Results published in patent US8722849B2, “Polypeptides” (Novo Nordisk A/S, priority 2011, dated 2014).
In brackets after ≈: the same amount, converted by molar mass. Like-named read-outs stand apart in the source and are kept apart here. Starred links: 1 amine or outer side, 2 acyl side, 3 side chain; linkers in the order of their positions; H or OH if unused. Positions of bridges follow the written chain, without caps; N, C: chain ends. Residues, ends and D or L forms follow the SMILES beside them. *: point of attachment. C20 diacid = O=C(O)CCCCCCCCCCCCCCCCCCC(=O)*; γGlu = O=C(O)[C@H](CCC(=O)[*:2])N[*:1]

Assays:
[1] = molecular target: T1, human calcitonin receptor (Homo sapiens, UniProt P30988); test: Assay (II)a functional CRE-luciferase assay, human calcitonin receptor; format: cell-based; conditions: Table 7; human calcitonin (CTa) receptor
T1 construct: expressed in transfected cells; host or cells: BHK570
T1 sequence (P30988 25-474): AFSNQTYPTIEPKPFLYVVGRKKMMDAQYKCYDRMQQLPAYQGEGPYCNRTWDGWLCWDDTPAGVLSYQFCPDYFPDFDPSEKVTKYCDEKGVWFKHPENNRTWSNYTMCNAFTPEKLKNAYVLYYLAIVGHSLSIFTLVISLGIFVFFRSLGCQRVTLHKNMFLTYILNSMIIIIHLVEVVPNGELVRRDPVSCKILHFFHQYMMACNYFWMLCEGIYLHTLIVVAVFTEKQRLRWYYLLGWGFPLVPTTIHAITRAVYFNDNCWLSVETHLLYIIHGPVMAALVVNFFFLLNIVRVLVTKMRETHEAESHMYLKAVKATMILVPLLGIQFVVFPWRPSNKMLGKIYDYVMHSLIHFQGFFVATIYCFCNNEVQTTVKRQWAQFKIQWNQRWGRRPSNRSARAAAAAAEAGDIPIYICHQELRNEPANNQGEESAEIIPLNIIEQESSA

[2] = Assay (III) ThT fibrillation assay for physical stability; format: physicochemical
Outline: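 Freshly prepared formulations, pH-adjusted, with 1 μM ThT; four or eight replicates incubated at 37 °C under 960 rpm orbital shaking. Fluorescence (ex 444/em 485 nm) read every 20 min; […]. Peptide concentration measured by RP-HPLC before and after the run.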

[3] = Assay (IV) determination of solubility; format: physicochemical
Outline: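 Eight 100 mM buffers (glycylglycine pH 3.0–5.0, bistrispropane pH 6.0–8.0) each received an equal volume of polypeptide dissolved in water at ~500 nmol/ml. Soluble polypeptide was measured by HPLC following 18 hours at room temperature and centrifugation.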

[4] = molecular target: T2, human amylin receptor (amylin 3(a) receptor: human calcitonin receptor + RAMP-3) (Homo sapiens, UniProt O60896+P30988); test: Assay (II)a functional CRE-luciferase assay, human amylin receptor; format: cell-based; conditions: Table 2; BHK amylin 3(a)-receptor/CRE-luc cells
T2 construct: expressed in transfected cells; host or cells: BHK570
T2 sequence (P30988 25-474): T1 sequence (P30988 25-474)
T2 sequence (O60896 24-148 partner): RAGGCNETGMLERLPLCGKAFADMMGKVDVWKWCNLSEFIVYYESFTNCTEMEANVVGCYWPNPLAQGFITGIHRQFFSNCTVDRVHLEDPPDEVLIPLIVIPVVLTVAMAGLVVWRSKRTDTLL

[5] = bistrispropane buffer, pH 6, pH 6.0, read-out: Solubility pH 6.0
[6] = bistrispropane buffer, pH 6.5, pH 6.5, read-out: Solubility pH 6.5
[7] = bistrispropane buffer, pH 7, pH 7.0, read-out: Solubility pH 7.0
[8] = bistrispropane buffer, pH 7.5, pH 7.5, read-out: Solubility pH 7.5
[9] = glycylglycine buffer, pH 3, pH 3.0, read-out: Solubility pH 3.0
[10] = glycylglycine buffer, pH 4, pH 4.0, 18 hours at room temperature, Table 2, read-out: Solubility pH 4.0
[11] = glycylglycine buffer, pH 4, pH 4.0, read-out: Solubility pH 4.0
[12] = glycylglycine buffer, pH 5, pH 5.0, read-out: Solubility pH 5.0
[13] = bistrispropane buffer, pH 7, pH 7.0, 18 hours at room temperature, Table 3, read-out: Solubility pH 7.0
[14] = bistrispropane buffer, pH 8, pH 8.0, read-out: Solubility pH 8.0

EC50 [1] | ThT pH 4.0 lag time (h) ([2]; ThT fibrillation assay) | solubility at 18 h [3, 5] | solubility at 18 h [3, 6] | solubility at 18 h [3, 7] | solubility at 18 h [3, 8] | solubility at 18 h [3, 9] | solubility at 18 h [3, 10] | solubility at 18 h [3, 11] | solubility at 18 h [3, 12] | solubility at 18 h ([3]; pH 8.0, read-out: Solubility pH 8.0) | EC50 [4] | ThT pH 4.0 lag time ([2]; Table 8) | ThT pH 4.0 lag time ([2]; ThT fibrillation assay) | solubility at 18 h [3, 13] | solubility at 18 h ([3]; bistrispropane buffer, pH 7, pH 7.0, Table 8, read-out: Solubility pH 7.0) | solubility at 18 h [3, 14] | SMILES
349 pM | 1.7 h | 1 µM (≈ 4.4 µg/mL) | 1 µM (≈ 4.4 µg/mL) | 1 µM (≈ 4.4 µg/mL) | 1 µM (≈ 4.4 µg/mL) | > 200 µM | > 200 µM | > 200 µM | > 200 µM | 1 µM (≈ 4.4 µg/mL) | 921 pM |  |  |  |  |  | CC[C@H](C)[C@H](NC(=O)[C@@H]1CCCN1C(=O)CNC(=O)[C@H](Cc1ccccc1)NC(=O)[C@H](CC(N)=O)NC(=O)[C@H](CO)NC(=O)[C@H](CO)NC(=O)[C@H](CO)NC(=O)[C@H](Cc1c[nH]cn1)NC(=O)[C@@H](NC(=O)[C@H](CC(C)C)NC(=O)[C@H](Cc1ccccc1)NC(=O)[C@H](CCC(=O)O)NC(=O)[C@H](C)NC(=O)[C@H](CC(C)C)NC(=O)[C@H](CCCNC(=N)N)NC(=O)[C@H](CCC(N)=O)NC(=O)[C@@H](NC(=O)[C@H](C)NC(=O)[C@@H]1CSSC[C@H](NC(=O)[C@H](Cc2c[nH]cn2)NC(=O)CC[C@H](NC(=O)CCCCCCCCCCCCCCCCCCC(=O)O)C(=O)O)C(=O)N[C@@H](CC(N)=O)C(=O)N[C@@H]([C@@H](C)O)C(=O)N[C@@H](C)C(=O)N[C@@H]([C@@H](C)O)C(=O)N1)[C@@H](C)O)C(C)C)C(=O)N[C@@H](CC(C)C)C(=O)N[C@@H](CO)C(=O)N[C@@H](CO)C(=O)N[C@H](C(=O)N[C@@H](CC(N)=O)C(=O)N[C@H](C(=O)NCC(=O)N[C@@H](CO)C(=O)N[C@@H](Cc1c[nH]cn1)C(=O)N[C@H](C(=O)N[C@@H](Cc1ccc(O)cc1)C(N)=O)[C@@H](C)O)C(C)C)[C@@H](C)O [Example 110, N-alpha-[(S)-4-Carboxy-4-(19-carboxynonadecanoylamino)butyryl]-[His1,Glu14,Ser21,Ser28,Ser29,His35]-pramlintide] ({C20 diacid-γGlu}-HCNTATCATQRLAEFLVHSSSNFGPILSSTNVGSHTY-NH2; disulfide 2-7 (inferred))
72 pM | 29 h | 192 µM (≈ 835 µg/mL) | > 200 µM | > 200 µM | > 200 µM | > 200 µM | > 200 µM | > 200 µM | > 200 µM |  | 121 pM | 29 h | 29 h | > 200 µM | > 200 µM | > 200 µM | CC[C@H](C)[C@H](NC(=O)[C@@H]1CCCN1C(=O)CNC(=O)[C@H](Cc1ccccc1)NC(=O)[C@H](CC(N)=O)NC(=O)[C@H](CCC(N)=O)NC(=O)[C@H](CO)NC(=O)[C@H](CO)NC(=O)[C@H](Cc1c[nH]cn1)NC(=O)[C@H](Cc1c[nH]cn1)NC(=O)[C@H](CC(C)C)NC(=O)[C@H](Cc1ccccc1)NC(=O)[C@H](CCC(=O)O)NC(=O)[C@H](C)NC(=O)[C@H](CC(C)C)NC(=O)[C@H](CCCNC(=N)N)NC(=O)[C@H](CCC(N)=O)NC(=O)[C@@H](NC(=O)[C@H](C)NC(=O)[C@@H]1CSSC[C@H](NC(=O)CNC(=O)CC[C@H](NC(=O)CCCCCCCCCCCCCCCCCCC(=O)O)C(=O)O)C(=O)N[C@@H](CC(N)=O)C(=O)N[C@@H]([C@@H](C)O)C(=O)N[C@@H](C)C(=O)N[C@@H]([C@@H](C)O)C(=O)N1)[C@@H](C)O)C(=O)N[C@@H](CC(C)C)C(=O)N1CCC[C@H]1C(=O)N1CCC[C@H]1C(=O)N[C@H](C(=O)N[C@@H](CC(N)=O)C(=O)N[C@H](C(=O)NCC(=O)N[C@@H](CO)C(=O)N[C@@H](CCC(N)=O)C(=O)N[C@H](C(=O)N1CCC[C@H]1C(N)=O)[C@@H](C)O)C(C)C)[C@@H](C)O [Example 137, N-alpha-[(S)-4-Carboxy-4-(19-carboxynonadecanoylamino)butyryl]-[Gly1,Glu14,His17,Gln21,Gln35,Pro37]-pramlintide] ({C20 diacid-γGlu}-GCNTATCATQRLAEFLHHSSQNFGPILPPTNVGSQTP-NH2; disulfide 2-7)
49 pM | 15.3 h | > 200 µM | > 200 µM | > 200 µM | > 200 µM | > 200 µM | > 200 µM | > 200 µM | > 200 µM |  | 52 pM |  |  | > 200 µM |  | > 200 µM | CC[C@H](C)[C@H](NC(=O)[C@@H]1CCCN1C(=O)CNC(=O)[C@H](Cc1ccccc1)NC(=O)[C@H](CC(N)=O)NC(=O)[C@H](CC(N)=O)NC(=O)[C@H](CO)NC(=O)[C@H](CO)NC(=O)[C@H](Cc1c[nH]cn1)NC(=O)[C@H](Cc1c[nH]cn1)NC(=O)[C@H](CC(C)C)NC(=O)[C@H](Cc1ccccc1)NC(=O)[C@H](CCC(=O)O)NC(=O)[C@H](C)NC(=O)[C@H](CC(C)C)NC(=O)[C@H](CCCNC(=N)N)NC(=O)[C@H](CCC(N)=O)NC(=O)[C@@H](NC(=O)[C@H](C)NC(=O)[C@@H]1CSSC[C@H](NC(=O)[C@H](Cc2c[nH]cn2)NC(=O)CNC(=O)CC[C@H](NC(=O)CCCCCCCCCCCCCCCCCCC(=O)O)C(=O)O)C(=O)N[C@@H](CC(N)=O)C(=O)N[C@@H]([C@@H](C)O)C(=O)N[C@@H](C)C(=O)N[C@@H]([C@@H](C)O)C(=O)N1)[C@@H](C)O)C(=O)N[C@@H](CC(C)C)C(=O)N1CCC[C@H]1C(=O)N1CCC[C@H]1C(=O)N[C@H](C(=O)N[C@@H](CC(N)=O)C(=O)N[C@H](C(=O)NCC(=O)N[C@@H](CO)C(=O)N[C@@H](CC(N)=O)C(=O)N[C@H](C(=O)N1CCC[C@H]1C(N)=O)[C@@H](C)O)C(C)C)[C@@H](C)O [Example 92, N-alpha-[(S)-4-Carboxy-4-(19-carboxynonadecanoylamino)butyryl]-Gly-[His1,Glu14,His17,Pro37]-pramlintide] ({C20 diacid-γGlu}-GHCNTATCATQRLAEFLHHSSNNFGPILPPTNVGSNTP-NH2; disulfide 3-8 (inferred); C-terminus assumed)
